Measured values: ChEMBL document CHEMBL1201862, “PubChem BioAssay data set” (2004)
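Step 1: Grow cells in 96-well plates. Step 2: Expose to compound for 48 hours at 5 concentrations. Step 3: Interpolate endpoints linearly; if unreached, use highest concentration. Here, GI50 denotes the concentration required for 50% inhibition of growth.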 Activity calls are given as the source filed them. No stated cut-off is given here; in the data, active = GI50 up to about 1.1 µM and inactive = higher.

Legend:
Assay in all cases: NCI anticancer screen, dose series, 48 h
SNB-75 = test system: SNB-75
U-251 = test system: U-251
UACC-257 = test system: UACC-257
RXF 393 = test system: RXF 393
COLO 205 = test system: COLO 205
NCI/ADR-RES = test system: NCI/ADR-RES
NCI-H23 = test system: NCI-H23
MOLT-4 = test system: MOLT-4
SK-MEL-5 = test system: SK-MEL-5
SK-MEL-28 = test system: SK-MEL-28
HOP-62 = test system: HOP-62
A549 = test system: A549
786-0 = test system: 786-0
UO-31 = test system: UO-31
HOP-92 = test system: HOP-92
SF-539 = test system: SF-539
NCI-H522 = test system: NCI-H522
NCI-H226 = test system: NCI-H226
SN12C = test system: SN12C
MDA-MB-231 = test system: MDA-MB-231

Measured: GI50

CCC(=O)C1(c2ccccc2)CCN(C)CC1
inactive: SNB-75 > 100 µM | U-251 > 100 µM | UACC-257 > 100 µM | RXF 393 > 100 µM | COLO 205 > 100 µM | NCI/ADR-RES > 100 µM | NCI-H23 > 100 µM | MOLT-4 > 100 µM | SK-MEL-5 > 100 µM | SK-MEL-28 > 100 µM | HOP-62 > 100 µM | A549 > 100 µM | 786-0 > 100 µM | UO-31 > 100 µM | HOP-92 > 100 µM

COC(=O)/C(=N\N)C(C(=O)C(=O)Nc1nnc(S)[nH]1)c1nc2ccc([N+](=O)[O-])cc2nc1O (stereo not given)
inactive: SNB-75 > 100 µM | U-251 > 100 µM | UACC-257 > 100 µM | RXF 393 > 100 µM | COLO 205 > 100 µM | SF-539 > 100 µM | NCI-H23 > 100 µM | MOLT-4 > 100 µM | NCI-H522 > 100 µM | SK-MEL-5 > 100 µM | SK-MEL-28 > 100 µM | HOP-62 > 100 µM | A549 > 100 µM | 786-0 > 100 µM | UO-31 > 100 µM | NCI-H226 > 100 µM | SN12C > 100 µM | HOP-92 > 100 µM

C=C(Br)C(C)(Br)CCC(Br)C(C)(C)Br (stereo not given)
inactive: SNB-75 28.3 µM | U-251 17.1 µM | UACC-257 36.8 µM | RXF 393 46.6 µM | COLO 205 19.3 µM | SF-539 19.3 µM | NCI-H23 36.4 µM | MOLT-4 24.3 µM | NCI-H522 14.7 µM | SK-MEL-5 33.5 µM | SK-MEL-28 19.1 µM | HOP-62 14.7 µM | A549 80.2 µM | 786-0 22.5 µM | UO-31 60.7 µM | NCI-H226 35.3 µM | SN12C 21.6 µM | HOP-92 18.6 µM

CCOc1ccccc1NC(=O)C(=O)C(C(=O)c1ccc2ccccc2c1)C1OC(=O)c2ccccc21 (stereo not given)
inactive: SNB-75 8.77 µM | U-251 6.64 µM | UACC-257 13.7 µM | RXF 393 2.26 µM | COLO 205 14.8 µM | SF-539 7.08 µM | NCI-H23 7.64 µM | MOLT-4 3.37 µM | NCI-H522 11.8 µM | SK-MEL-5 10.6 µM | SK-MEL-28 10.4 µM | HOP-62 13.4 µM | A549 21.4 µM | 786-0 7.78 µM | UO-31 12.7 µM | NCI-H226 1.82 µM | SN12C 15.5 µM | HOP-92 10.5 µM

CCCCCCCCCCCCCC1=C(O)C(=O)C(CC2=C(O)C(=O)C(CCCCCCCCCCCCC)=C(O)C2=O)=C(O)C1=O
inactive: SNB-75 22.3 µM | U-251 68.2 µM | UACC-257 > 100 µM | RXF 393 6.11 µM | COLO 205 > 100 µM | SF-539 > 100 µM | NCI-H23 > 100 µM | MOLT-4 > 10 µM | NCI-H522 > 100 µM | SK-MEL-5 > 100 µM | SK-MEL-28 > 100 µM | A549 > 100 µM | 786-0 > 100 µM | UO-31 > 100 µM | NCI-H226 > 100 µM | SN12C > 100 µM | HOP-92 75.2 µM | MDA-MB-231 51.9 µM

COc1ccccc1OCC(COC(=O)Nc1ccc(C)cc1)OC(=O)Nc1ccc(C)cc1 (stereo not given)
inactive: SNB-75 23 µM | U-251 13.8 µM | UACC-257 19.3 µM | RXF 393 7.19 µM | COLO 205 18.2 µM | SF-539 19.1 µM | NCI-H23 23.2 µM | MOLT-4 18.9 µM | NCI-H522 16.1 µM | SK-MEL-5 20.7 µM | SK-MEL-28 23.7 µM | HOP-62 38.5 µM | A549 57.1 µM | 786-0 20 µM | UO-31 17.2 µM | NCI-H226 24.7 µM | SN12C 17.9 µM | HOP-92 7.59 µM

O=C1C(Cl)=C(Cl)C(=O)C(CCNc2nccs2)=C1Cl
inactive: SNB-75 23.3 µM | U-251 36.3 µM | UACC-257 21.1 µM | RXF 393 22.4 µM | COLO 205 32.8 µM | SF-539 33.7 µM | NCI/ADR-RES 25.5 µM | NCI-H23 31.2 µM | MOLT-4 51.4 µM | NCI-H522 13.1 µM | SK-MEL-5 19.5 µM | SK-MEL-28 39 µM | HOP-62 > 100 µM | A549 > 100 µM | 786-0 23.3 µM | UO-31 21.2 µM | SN12C 29.3 µM | HOP-92 22.1 µM

COc1ccc(-c2cc(-c3ccc(Cl)cc3)n(C3OC(CO)C(O)C(O)C3O)c(=S)c2C#N)cc1 (stereo not given)
inactive: SNB-75 89.7 µM | U-251 28.1 µM | UACC-257 47.8 µM | COLO 205 51.1 µM | SF-539 > 100 µM | MOLT-4 5.79 µM | SK-MEL-5 16.8 µM | SK-MEL-28 72.8 µM | HOP-62 57.8 µM | 786-0 12.5 µM | UO-31 16.8 µM | SN12C > 100 µM | HOP-92 > 100 µM | MDA-MB-231 37.5 µM

Cc1ccc(NC(=O)C(=O)C(C(=O)/C=C/c2ccccc2)C2OC(=O)c3ccccc32)c(C)c1 (stereo not given)
inactive: SNB-75 > 100 µM | U-251 > 100 µM | UACC-257 > 100 µM | RXF 393 > 100 µM | COLO 205 > 100 µM | SF-539 > 100 µM | NCI-H23 > 100 µM | MOLT-4 77.4 µM | NCI-H522 > 100 µM | SK-MEL-5 > 100 µM | SK-MEL-28 > 100 µM | HOP-62 > 100 µM | A549 > 100 µM | 786-0 > 100 µM | UO-31 > 100 µM | NCI-H226 > 100 µM | SN12C > 100 µM | HOP-92 > 100 µM

O=[N+]([O-])c1ccc(C2CC(c3ccccc3Cl)=Nc3ccccc3S2)cc1 (stereo not given)
inactive: SNB-75 4.21 µM | U-251 5.27 µM | UACC-257 12 µM | RXF 393 3.26 µM | COLO 205 15.8 µM | SF-539 6.65 µM | NCI-H23 6.15 µM | MOLT-4 1.56 µM | NCI-H522 2.89 µM | SK-MEL-5 3.95 µM | SK-MEL-28 8.34 µM | HOP-62 22.3 µM | A549 5.69 µM | 786-0 3.69 µM | UO-31 4.88 µM | NCI-H226 6.87 µM | SN12C 4.02 µM | HOP-92 6 µM

COc1cc(O)c(C(C)=O)c(O)c1
inactive: SNB-75 50.8 µM | U-251 63.8 µM | UACC-257 > 100 µM | RXF 393 > 100 µM | COLO 205 > 100 µM | SF-539 > 100 µM | NCI/ADR-RES > 100 µM | NCI-H23 30.8 µM | NCI-H522 43.1 µM | SK-MEL-5 35.3 µM | SK-MEL-28 52.6 µM | HOP-62 > 100 µM | A549 > 100 µM | 786-0 > 100 µM | UO-31 59.6 µM | SN12C 59 µM | HOP-92 25 µM
